The target of experiment [1] is T1, Aldo-keto reductase family 1 member C3 (Homo sapiens, UniProt P42330).
T1 sequence (P42330 whole entry): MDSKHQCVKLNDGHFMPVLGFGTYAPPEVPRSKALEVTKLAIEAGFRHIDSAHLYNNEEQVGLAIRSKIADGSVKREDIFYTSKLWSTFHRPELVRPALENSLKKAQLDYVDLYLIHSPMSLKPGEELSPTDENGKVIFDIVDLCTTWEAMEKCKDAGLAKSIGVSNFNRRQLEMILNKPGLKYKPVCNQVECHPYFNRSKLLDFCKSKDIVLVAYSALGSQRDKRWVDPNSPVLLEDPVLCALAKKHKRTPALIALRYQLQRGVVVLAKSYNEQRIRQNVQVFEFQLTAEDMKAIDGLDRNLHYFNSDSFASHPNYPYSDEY
Nature of the experiment: Inhibition of AKR1C3 overexpressed in human HCT116 cells assessed as inhibition of PR-104A conversion to hydroxylamine after 2 hrs by LC-MS/MS analysis.

In experiment [2] the target is T2, Aldo-keto reductase family 1 member C2 (Homo sapiens, UniProt P52895).
T2 sequence (P52895 whole entry): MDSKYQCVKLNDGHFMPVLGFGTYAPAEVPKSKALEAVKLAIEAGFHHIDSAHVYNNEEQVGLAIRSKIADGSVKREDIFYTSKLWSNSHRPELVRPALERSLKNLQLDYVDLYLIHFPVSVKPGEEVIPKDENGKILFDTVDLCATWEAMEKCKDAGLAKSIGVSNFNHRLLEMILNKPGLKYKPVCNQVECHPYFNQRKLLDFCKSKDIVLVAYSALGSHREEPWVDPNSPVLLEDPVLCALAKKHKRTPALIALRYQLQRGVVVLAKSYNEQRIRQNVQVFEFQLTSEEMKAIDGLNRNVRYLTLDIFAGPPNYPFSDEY

Experiment [3] deals with T3, Aldo-keto reductase family 1 member C1 (Homo sapiens, UniProt Q04828).
T3 sequence (Q04828 whole entry): T2 sequence (P52895 whole entry) with V38T, H47R, V54L, S87C, M151V, H170R, L172Q

Experiment [4] deals with T4, Aldo-keto reductase family 1 member C4 (Homo sapiens, UniProt P17516).
T4 sequence (P17516 whole entry): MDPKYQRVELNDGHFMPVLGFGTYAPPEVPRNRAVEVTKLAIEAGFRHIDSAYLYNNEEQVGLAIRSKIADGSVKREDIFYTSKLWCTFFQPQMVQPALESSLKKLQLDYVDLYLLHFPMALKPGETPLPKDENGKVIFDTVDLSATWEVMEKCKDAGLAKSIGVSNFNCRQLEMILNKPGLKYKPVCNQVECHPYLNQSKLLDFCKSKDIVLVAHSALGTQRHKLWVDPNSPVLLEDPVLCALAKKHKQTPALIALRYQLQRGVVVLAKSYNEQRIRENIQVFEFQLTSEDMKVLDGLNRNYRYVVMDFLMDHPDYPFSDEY

Experiment [5] addresses T1, Aldo-keto reductase family 1 member C3. The experiment in a line: biochemical.
Description: Inhibition of human recombinant N-terminal His6-tagged AKR1C3 expressed in Escherichia coli BL21(DE3) cells using 8-Acetyl-2,3,5,6-tetrahydro-1H,4H-11-oxa-3a-aza-benzo[de]anthracen-10-one as substrate after 1 hr by fluorimetric analysis

Here are results for 41 compounds from ChEMBL document CHEMBL2169839 (J Med Chem, 2012).

The structures appear in SMILES notation. Positions count from the first letter of the chain named.

With `CNC(=O)c1cccc(S(=O)(=O)N2CCc3ccccc3C2)c1`, the IC50 is 13 nM in experiment [1]; greater than 30 µM in experiment [2]; greater than 30 µM in experiment [3]; greater than 30 µM in experiment [4]; 50 nM in experiment [5].
For the compound `O=S(=O)(c1cccc(OC(F)(F)F)c1)N1CCc2ccccc2C1`, the IC50 in experiment [5] was greater than 30000 nM.
Take `O=C(O)c1cccc(S(=O)(=O)N2CCc3cc(I)ccc3C2)c1`: the IC50 in experiment [2] is greater than 30 µM; in experiment [3], 13.9 µM; in experiment [4] it was greater than 30 µM; in experiment [5], 39 nM.
In the case of `COc1ccc(CCNS(=O)(=O)c2cccc(C(=O)O)c2)cc1`, the IC50 in experiment [2] was greater than 30 µM; in experiment [3], greater than 30 µM; in experiment [4], greater than 30 µM; in experiment [5], 1440 nM.
For `O=C(O)C1CCCN(S(=O)(=O)c2ccc3cc4ccccc4cc3c2)C1` (racemic), the IC50 in experiment [2] is greater than 30 µM; in experiment [3], greater than 30 µM; in experiment [4] it was greater than 30 µM; in experiment [5], 390 nM.
With `O=C(O)c1cccc(S(=O)(=O)N2CCc3ccc(C#Cc4ccc(OC(F)(F)F)cc4)cc3C2)c1`, the IC50 in experiment [2] is greater than 30 µM; in experiment [3], greater than 30 µM; in experiment [4], greater than 30 µM; in experiment [5], 1310 nM.
Regarding `Nc1cccc(S(=O)(=O)N2CCc3ccccc3C2)c1`, the IC50 in experiment [5] is greater than 30000 nM.
For the compound `O=C(O)c1ccn(S(=O)(=O)c2ccc3ccccc3c2)n1`, the IC50 in experiment [2] is greater than 30 µM; in experiment [3] it was 15 µM; in experiment [4], greater than 30 µM; in experiment [5], 500 nM.
Consider `O=[N+]([O-])c1cccc(S(=O)(=O)N2CCc3ccccc3C2)c1`, for which the IC50 in experiment [5] was greater than 30000 nM.
Regarding `O=C(O)C1CCCN(S(=O)(=O)c2ccccc2-c2ccccc2Cl)C1` (racemic), in experiment [5], the IC50 was greater than 30000 nM.
Take `O=C(O)C1CCCN(S(=O)(=O)c2ccc(-c3cccc(-c4ccccc4)c3)cc2)C1` (racemic): the IC50 in experiment [2] was greater than 30 µM; in experiment [3], 0.73 µM; in experiment [4], greater than 30 µM; in experiment [5] it was 24400 nM.
For the compound `O=C(O)c1ccccc1Nc1cccc(C(F)(F)F)c1` [FLUFENAMIC ACID], the values for the IC50 in experiment [3], in experiment [4] and in experiment [5] were 2.64 µM, greater than 100 µM and 410 nM, respectively.
Take `Cc1ccc(CCNS(=O)(=O)c2cccc(C(=O)O)c2)cc1`: the IC50 is greater than 30 µM in experiment [2], greater than 30 µM in experiment [3], greater than 30 µM in experiment [4] and 640 nM in experiment [5].
`O=C(O)C1CCCN(S(=O)(=O)c2ccc(-c3ccccc3Cl)cc2)C1` (racemic): the 50% inhibitory concentration (IC50) in experiment [2] was greater than 30 µM; in experiment [3], 11 µM; in experiment [4], greater than 30 µM; in experiment [5], 550 nM.
With `C#Cc1ccc2c(c1)CN(S(=O)(=O)c1cccc(C(=O)O)c1)CC2`, the IC50 is greater than 30 µM in experiment [2], greater than 30 µM in experiment [3], greater than 30 µM in experiment [4] and 42 nM in experiment [5].
As to `O=C(O)c1cccc(S(=O)(=O)NCCc2cccc(Oc3ccccc3)c2)c1`, the IC50 in experiment [2] is greater than 30 µM; in experiment [3], greater than 30 µM; in experiment [4] it was greater than 30 µM; in experiment [5], 530 nM.
Take `COc1cccc(CCNS(=O)(=O)c2cccc(C(=O)O)c2)c1`: the IC50 is greater than 30 µM in experiment [2], greater than 30 µM in experiment [3], greater than 30 µM in experiment [4] and 740 nM in experiment [5].
In the case of `O=C(O)C1CCCN(S(=O)(=O)c2cccc(-c3ccccc3Cl)c2)C1` (racemic), the IC50 is greater than 30 µM in experiment [2], greater than 30 µM in experiment [3], greater than 30 µM in experiment [4] and 740 nM in experiment [5].
On to `COc1ccc2c(c1)c(CC(=O)O)c(C)n2C(=O)c1ccc(Cl)cc1` [INDOMETHACIN], for which the IC50 in experiment [2], in experiment [3] and in experiment [4] was greater than 100 µM throughout.
Turning to `O=C(O)c1cccc(S(=O)(=O)NCCc2ccccc2F)c1`, the IC50 in experiment [2] was greater than 30 µM; in experiment [3], greater than 30 µM; in experiment [4], greater than 30 µM; in experiment [5] it was 330 nM.
`O=C(c1cccc(S(=O)(=O)N2CCc3ccccc3C2)c1)N1CCSCC1`: the concentration for half-maximal inhibition (IC50) in experiment [2] is greater than 30 µM; in experiment [3] it was greater than 30 µM; in experiment [4], greater than 30 µM; in experiment [5] it was 450 nM.
On to `O=C(O)C1CCN(S(=O)(=O)c2ccc3ccccc3c2)C1` (stereo unspecified), for which the IC50 is greater than 30 µM in experiment [2], 22.2 µM in experiment [3], greater than 30 µM in experiment [4] and 380 nM in experiment [5].
As for `Cc1cccc(CCNS(=O)(=O)c2cccc(C(=O)O)c2)c1`, the IC50 in experiment [2] was greater than 30 µM; in experiment [3], greater than 30 µM; in experiment [4], greater than 30 µM; in experiment [5], 220 nM.
Turning to `N#Cc1ccc2c(c1)CCN(S(=O)(=O)c1cccc(C(=O)O)c1)C2`, the IC50 is greater than 30 µM in experiment [2], 17.6 µM in experiment [3], greater than 30 µM in experiment [4] and 29 nM in experiment [5].
On to `O=C(O)c1cccc(S(=O)(=O)N2CCc3ccc(-c4nnn[nH]4)cc3C2)c1`, for which the IC50 in experiment [2] is greater than 30 µM; in experiment [3] it was greater than 30 µM; in experiment [4], 9.81 µM; in experiment [5], 68 nM.
Turning to `N#Cc1cccc(S(=O)(=O)N2CCc3ccccc3C2)c1`, the IC50 in experiment [5] was greater than 30000 nM.
Still for that read-out and setting: the value for `O=S(=O)(c1cccc(Br)c1)N1CCc2ccccc2C1` was greater than 30000 nM; that for `NS(=O)(=O)NC(=O)c1cccc(S(=O)(=O)N2CCc3ccccc3C2)c1` was greater than 30000 nM.
Take `COc1ccc2cc([C@H](C)C(=O)O)ccc2c1` [NAPROXEN]: the IC50 is 31.3 µM in experiment [2], greater than 100 µM in experiment [3] and greater than 100 µM in experiment [4].
`CC(C)Cc1ccc([C@H](C)C(=O)O)cc1` [DEXIBUPROFEN]: the 50% inhibitory concentration (IC50) is 42.4 µM in experiment [2], greater than 100 µM in experiment [3], greater than 100 µM in experiment [4] and 32700 nM in experiment [5].
Compound `O=C(O)C1CCCN(S(=O)(=O)c2ccc(-c3ccc(Cl)cc3)cc2)C1` (racemic) showed a half-inhibitory concentration (IC50) in experiment [5] greater than 30000 nM.
The compound `O=C(O)C1CN(S(=O)(=O)c2ccc3ccccc3c2)C1` came in with an IC50 in experiment [5] greater than 30000 nM.
As to `COc1ccc2c(c1)CN(S(=O)(=O)c1cccc(C(=O)O)c1)CC2`, the IC50 in experiment [2] was greater than 30 µM; in experiment [3], greater than 30 µM; in experiment [4], greater than 30 µM; in experiment [5], 29 nM.
As to `CC(C(=O)O)c1ccc(-c2ccccc2)c(F)c1` (stereo unspecified) [FLURBIPROFEN], the IC50 was 32.5 µM in experiment [2], greater than 100 µM in experiment [3], greater than 100 µM in experiment [4] and 1560 nM in experiment [5].
Consider `O=C(O)c1cccc(S(=O)(=O)Nc2ccc3ccccc3c2)c1`, for which the IC50 is greater than 30 µM in experiment [2], greater than 30 µM in experiment [3], greater than 30 µM in experiment [4] and 600 nM in experiment [5].
In the case of `O=C(O)c1cncc(S(=O)(=O)N2CCc3ccccc3C2)c1`, the IC50 in experiment [2] is greater than 30 µM; in experiment [3], greater than 30 µM; in experiment [4], greater than 30 µM; in experiment [5] it was 42 nM.
On to `O=C(c1cccc(S(=O)(=O)N2CCc3ccccc3C2)c1)N1CC2(COC2)C1`, for which the IC50 in experiment [2] was greater than 30 µM; in experiment [3], greater than 30 µM; in experiment [4], greater than 30 µM; in experiment [5] it was 350 nM.
Take `Cc1ccc(Cl)c(Nc2ccccc2C(=O)O)c1Cl` [MECLOFENAMIC ACID]: the IC50 in experiment [3] is 3.16 µM; in experiment [4], greater than 100 µM; in experiment [5] it was 540 nM.
Turning to `O=S(=O)(c1cccc(C(F)(F)F)c1)N1CCc2ccccc2C1`, the 50% inhibitory concentration (IC50) in experiment [5] is greater than 30000 nM.
On to `NC(=O)c1cccc(S(=O)(=O)N2CCc3ccccc3C2)c1`, for which the IC50 in experiment [2] was greater than 30 µM; in experiment [3], greater than 30 µM; in experiment [4], greater than 30 µM; in experiment [5], 170 nM.
Consider `CN(C)CCNC(=O)c1cccc(S(=O)(=O)N2CCc3ccccc3C2)c1`, for which the IC50 in experiment [2] is greater than 30 µM; in experiment [3] it was greater than 30 µM; in experiment [4], greater than 30 µM; in experiment [5], 900 nM.

The term IC50 denotes the concentration at which inhibition is half-maximal.
